Source: patent publication US8921397B2, “Benzofurane-piperidine compounds” (Hoffmann-La Roche Inc., priority 2011, dated 2014)

How the values were obtained:
human D2 receptor = human D2 receptor (Homo sapiens (Human), UniProt P14416); test: Radioligand binding ([3H]-spiperone) to human D2 receptor, HEK293 EBNA membranes; conditions: HEK293 EBNA cells expressing human D2 receptor
Procedure: (§1) HEK293 EBNA cells were transiently transfected with expression plasmids encoding for the human D2 or D3 or for the human 5-HT2A receptor, respectively. The cells were harvested 48 h post-transfection, washed three times with cold PBS and stored at −80° C. prior to use. The pellet was suspended in cold 50 mM Tris-HCl buffer containing 10 mM EDTA (pH 7.4) and was homogenized with a Polytron (Kinematica AG, Basel, Switzerland) for 20-30 sec at 12.000 rpm. After centrifugation at 48.000×g for 30 min at 4° C., the pellet was resuspended in cold 10 mM Tris-HCl buffer containing 0.1 mM EDTA (pH 7.4), homogenized, and centrifuged as above. This pellet was further resuspended in a smaller volume of ice cold 10 mM Tris-HCl buffer containing 0.1 mM EDTA (pH 7.4) and homogenized with a Polytron for 20-30 sec at 12.000 rpm. The protein content of this homogenate was determined with the Bio-Rad (Bradford) Protein Assay (Biorad Laboratories GmbH, München, Germany) according to the instructions of the manufacturer using gamma globulin as the standard. This homogenate was stored at −80° C. in aliquots and thawed immediately prior to use.
(§2) Aliquots of membrane preparations were thawed at RT, resuspended in assay buffer (D2, D3: 50 mM Tris-HCl, 120 mM NaCl, 5 mM MgCl2, 1 mM EDTA, 5 mM KCl, 1.5 mM CaCl2, pH=7.4; 5-HT2A: 50 mM Tris-HCl, 10 mM MgCl2, 1 mM EGTA, pH=7.4), homogenized with a Polytron for 20-30 sec at 12.000 rpm and adjusted to a final concentration of approximately 7.5 μg protein/well (D2, D3) and 15 μg protein/well (5-HT2A), respectively.
(§3) The binding affinity (Ki) of the compounds was determined using radioligand binding.
(§4) Membranes were incubated in a total volume of 200 μl with a fixed concentration of radioligand (final concentration approximately 0.7 nM [^3H]-spiperone for D2, 0.5 nM [^3 H]-spiperone for D3, and 1.1 nM [^3H]-ketanserin for 5-HT2A) and ten concentrations of test compound in ranging between 10 μM-0.1 nM for 1 h at RT. At the end of the incubation, the reaction mixtures were filtered on to unifilter 96-well white microplates with bonded GF/C filters (Packard BioScience, Zürich, Switzerland; preincubated for 1 h in 0.1% polyethylenimine (PEI) in assay buffer) with a Filtermate 196 harvester (Packard BioScience) and washed 3 times with cold assay buffer. The nonspecific binding was determined with equally composed reaction mixtures in the presence of 10 μM unlabelled spiperone. Per well 45 μl of Microscint 40 (Perkin Elmer, Schwerzenbach, Switzerland) was added, plates for sealed, shaken for 20 min and counted for 3 min on a Topcount Microplate Scintillation Counter (Canberra Packard SA, Zürich, Switzerland) with quenching correction.
(§5) The CPM value for each duplicate of a concentration of competing compound was averaged (y1), then the % specific binding was calculated according to the equation (((y1−non-specific)/(total binding−non-specific))×100). Graphs were plotted with the % specific binding using XLfit, a curve-fitting program that iteratively plots the data using Levenberg-Marquardt algorithm. The single site competition analysis equation used was y=A+((B−A)/(1+((x/C)D))), where y is the % specific binding, A is the minimum y, B is the maximum y, C is the IC50, x is the log 10 of the concentration of the competing compound and D is the slope of the curve (the Hill Coefficient). From these curves the IC50 (inhibition concentration at which 50% specific binding of the radioligand was displaced) and Hill coefficient were determined. The affinity constant (Ki) was calculated using the Cheng-Prusoff equation Ki=(IC50/1+([L]/Kd), where [L] is the concentration of radioligand and Kd is the dissociation constant of the radioligand at the receptor as determined by the saturation isotherm.

human D3 receptor = human D3 receptor (Homo sapiens (Human), UniProt P35462); test: Radioligand binding ([3H]-spiperone) to human D3 receptor, HEK293 EBNA membranes; conditions: HEK293 EBNA cells expressing human D3 receptor
Procedure: as §1, §2, §3, §4, §5

human 5-HT2A receptor = human 5-HT2A receptor (Homo sapiens (Human), UniProt P28223); test: Radioligand binding ([3H]-ketanserin) to human 5-HT2A receptor, HEK293 EBNA membranes; conditions: HEK293 EBNA cells expressing human 5-HT2A receptor
Procedure: The ability of the compounds to bind to the 5-HT2A, D3 and D2 receptors was determined using radioligand binding to cloned receptors selectively expressed in HEK-293 EBNA cells.
as §1, §2, §3, §4, §5

Chain of human 5-HT2A receptor (P28223 whole entry): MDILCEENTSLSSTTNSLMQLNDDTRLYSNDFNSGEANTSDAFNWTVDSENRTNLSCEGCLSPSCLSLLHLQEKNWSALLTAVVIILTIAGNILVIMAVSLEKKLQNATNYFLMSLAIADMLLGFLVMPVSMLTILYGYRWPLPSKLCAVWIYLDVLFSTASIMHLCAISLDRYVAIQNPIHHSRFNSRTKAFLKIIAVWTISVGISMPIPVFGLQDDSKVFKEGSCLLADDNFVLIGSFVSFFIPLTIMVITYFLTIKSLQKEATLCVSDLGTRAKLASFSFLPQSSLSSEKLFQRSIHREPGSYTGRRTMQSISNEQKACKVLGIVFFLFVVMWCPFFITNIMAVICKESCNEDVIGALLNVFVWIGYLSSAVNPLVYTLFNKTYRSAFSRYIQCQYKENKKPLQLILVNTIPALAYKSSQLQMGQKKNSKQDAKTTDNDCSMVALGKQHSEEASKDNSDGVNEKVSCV
Chain of human D2 receptor (P14416 whole entry): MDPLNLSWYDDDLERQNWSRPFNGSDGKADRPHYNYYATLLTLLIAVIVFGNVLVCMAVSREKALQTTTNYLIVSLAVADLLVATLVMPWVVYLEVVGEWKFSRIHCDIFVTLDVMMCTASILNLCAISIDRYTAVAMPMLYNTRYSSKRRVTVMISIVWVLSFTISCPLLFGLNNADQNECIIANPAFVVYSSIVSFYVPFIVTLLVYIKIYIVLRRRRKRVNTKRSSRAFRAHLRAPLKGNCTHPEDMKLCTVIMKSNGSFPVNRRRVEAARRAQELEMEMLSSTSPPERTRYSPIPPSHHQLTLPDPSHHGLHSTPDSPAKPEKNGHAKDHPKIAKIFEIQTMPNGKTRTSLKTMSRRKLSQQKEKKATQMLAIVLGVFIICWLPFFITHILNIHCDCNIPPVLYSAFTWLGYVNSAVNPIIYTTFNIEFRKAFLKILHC
Chain of human D3 receptor (P35462 whole entry): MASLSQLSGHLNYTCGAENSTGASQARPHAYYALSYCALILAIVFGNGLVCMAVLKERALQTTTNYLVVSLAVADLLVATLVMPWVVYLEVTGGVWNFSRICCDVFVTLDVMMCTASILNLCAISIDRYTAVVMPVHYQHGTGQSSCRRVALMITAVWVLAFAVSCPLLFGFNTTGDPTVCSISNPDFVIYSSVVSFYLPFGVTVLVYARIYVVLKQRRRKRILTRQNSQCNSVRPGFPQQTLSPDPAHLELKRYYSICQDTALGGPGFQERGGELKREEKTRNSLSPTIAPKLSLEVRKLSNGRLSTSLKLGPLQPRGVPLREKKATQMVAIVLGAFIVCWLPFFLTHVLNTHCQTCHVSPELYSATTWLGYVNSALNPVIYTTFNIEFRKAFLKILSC

Row | SMILES | Ki (human D2 receptor) | Ki (human D3 receptor) | Ki (human 5-HT2A receptor) | melting point
1 | O=C(CC1CCCO1)N[C@H]1CC[C@H](CCN2CCC(c3coc4ccccc34)CC2)CC1 (stereo partly drawn) [Example 29, trans-N-{4-[2-(4-Benzofuran-3-yl-piperidin-1-yl)-ethyl]-cyclohexyl}-2-(tetrahydro-furan-2-yl)-acetamide] | 52.9 nM | 2.75 nM | 5.43 nM | 149 °C
2 | CC(C)(O)C(=O)N[C@H]1CC[C@H](CCN2CCC(c3coc4ccccc34)CC2)CC1 [Example 16, trans-N-{4-[2-(4-Benzofuran-3-yl-piperidin-1-yl)-ethyl]-cyclohexyl}-2-hydroxy-2-methyl-propionamide] | 53.7 nM | 5.51 nM | 2.25 nM | 169 °C
3 | CC#CC(=O)N[C@H]1CC[C@H](CCN2CCC(c3coc4ccccc34)CC2)CC1 [Example 55, But-2-ynoic acid trans-{4-[2-(4-benzofuran-3-yl-piperidin-1-yl)-ethyl]-cyclohexyl}-amide] | 25.6 nM | 2.09 nM | 7.89 nM | 161 °C
4 | CC(C)(C)c1ccc(S(=O)(=O)N[C@H]2CC[C@H](CCN3CCC(c4coc5ccccc45)CC3)CC2)cc1 [Example 88, trans-N-{4-[2-(4-Benzofuran-3-yl-piperidin-1-yl)-ethyl]-cyclohexyl}-4-tert-butyl-benzenesulfonamide] | 70 nM | 12.1 nM | 31.5 nM | 171 °C
5 | O=C(N[C@H]1CC[C@H](CCN2CCC(c3coc4ccccc34)CC2)CC1)c1ccc(N2CCCCC2)cc1 [Example 51, trans-N-{4-[2-(4-Benzofuran-3-yl-piperidin-1-yl)-ethyl]-cyclohexyl}-4-piperidin-1-yl-benzamide] | 345 nM | 4.39 nM | 6.85 nM | 221 °C
6 | O=C(N[C@H]1CC[C@H](CCN2CCC(c3coc4ccccc34)CC2)CC1)c1ccc2ncccc2c1 [Example 73, Quinoline-6-carboxylic acid trans-{4-[2-(4-benzofuran-3-yl-piperidin-1-yl)-ethyl]-cyclohexyl}-amide] | 103 nM | 2.42 nM | 11 nM | 192 °C
7 | O=C(N[C@H]1CC[C@H](CCN2CCC(c3coc4ccccc34)CC2)CC1)c1ccc(Cl)cc1Cl [Example 87, trans-N-{4-[2-(4-Benzofuran-3-yl-piperidin-1-yl)-ethyl]-cyclohexyl}-2,4-dichloro-benzamide] | 38.2 nM | 4.37 nM | 12.3 nM | 187 °C
8 | O=C(N[C@H]1CC[C@H](CCN2CCC(c3coc4ccccc34)CC2)CC1)C1CCC1 [Example 20, Cyclobutanecarboxylic acid trans-{4-[2-(4-benzofuran-3-yl-piperidin-1-yl)-ethyl]-cyclohexyl}-amide] | 38 nM | 1.85 nM | 5.56 nM | 180 °C
9 | O=C(N[C@H]1CC[C@H](CCN2CCC(c3coc4ccccc34)CC2)CC1)C1CC1 [Example 27, Cyclopropanecarboxylic acid trans-{4-[2-(4-benzofuran-3-yl-piperidin-1-yl)-ethyl]-cyclohexyl}-amide] | 22.7 nM | 2.69 nM | 4.3 nM | 204 °C
10 | O=C(CC1CCOCC1)N[C@H]1CC[C@H](CCN2CCC(c3coc4ccccc34)CC2)CC1 [Example 4, trans-N-{4-[2-(4-Benzofuran-3-yl-piperidin-1-yl)-ethyl]-cyclohexyl}-2-(tetrahydro-pyran-4-yl)-acetamide] | 77.6 nM | 3.14 nM | 5.37 nM | 175 °C
11 | O=C(N[C@H]1CC[C@H](CCN2CCC(c3coc4ccccc34)CC2)CC1)C1CCCO1 (mixture of isomers) [Example 18, (RS)-Tetrahydro-furan-2-carboxylic acid trans-{4-[2-(4-benzofuran-3-yl-piperidin-1-yl)-ethyl]-cyclohexyl}-amide] | 81.5 nM | 9.2 nM | 2.88 nM | 132 °C
12 | O=C(N[C@H]1CC[C@H](CCN2CCC(c3coc4ccccc34)CC2)CC1)C(F)(F)F [Example 39, trans-N-{4-[2-(4-Benzofuran-3-yl-piperidin-1-yl)-ethyl]-cyclohexyl}-2,2,2-trifluoro-acetamide] | 37.5 nM | 4.08 nM | 8.62 nM | 152 °C
13 | O=C(N[C@H]1CC[C@H](CCN2CCC(c3coc4ccccc34)CC2)CC1)c1ccc(Cl)cc1 [Example 49, trans-N-{4-[2-(4-Benzofuran-3-yl-piperidin-1-yl)-ethyl]-cyclohexyl}-4-chloro-benzamide] | 25.8 nM | 3.22 nM | 9.01 nM | 203 °C
14 | O=C(CC1COC1)N[C@H]1CC[C@H](CCN2CCC(c3coc4ccccc34)CC2)CC1 [Example 76, trans-N-{4-[2-(4-Benzofuran-3-yl-piperidin-1-yl)-ethyl]-cyclohexyl}-2-oxetan-3-yl-acetamide] | 34.2 nM | 1.64 nM | 5.25 nM | 197 °C
15 | CS(=O)(=O)CC(=O)N[C@H]1CC[C@H](CCN2CCC(c3coc4ccccc34)CC2)CC1 [Example 7, trans-N-{4-[2-(4-Benzofuran-3-yl-piperidin-1-yl)-ethyl]-cyclohexyl}-2-methanesulfonyl-acetamide] | 50.8 nM | 1.45 nM | 3.54 nM | 187 °C
16 | O=C(N[C@H]1CC[C@H](CCN2CCC(c3coc4ccccc34)CC2)CC1)C(O)C(F)(F)F (mixture of isomers) [Example 32, trans-N-{4-[2-(4-Benzofuran-3-yl-piperidin-1-yl)-ethyl]-cyclohexyl}-(RS)-3,3,3-trifluoro-2-hydroxy-propionamide] | 46.4 nM | 4.02 nM | 6.08 nM | 206 °C
17 | CN(C)C(=O)CCC(=O)N[C@H]1CC[C@H](CCN2CCC(c3coc4ccccc34)CC2)CC1 [Example 42, trans-N-{4-[2-(4-Benzofuran-3-yl-piperidin-1-yl)-ethyl]-cyclohexyl}-N′,N′-dimethyl-succinamide] | 92.3 nM | 2.43 nM | 7.8 nM | 167 °C
18 | O=C(Cc1noc2ccccc12)N[C@H]1CC[C@H](CCN2CCC(c3coc4ccccc34)CC2)CC1 [Example 85, trans-2-Benzo[d]isoxazol-3-yl-N-{4-[2-(4-benzofuran-3-yl-piperidin-1-yl)-ethyl]-cyclohexyl}-acetamide] | 245 nM | 145 nM | 8.22 nM | 175 °C
19 | CCc1ccc(C(=O)N[C@H]2CC[C@H](CCN3CCC(c4coc5ccccc45)CC3)CC2)cc1 [Example 81, trans-N-{4-[2-(4-Benzofuran-3-yl-piperidin-1-yl)-ethyl]-cyclohexyl}-4-ethyl-benzamide] | 204 nM | 1.33 nM | 2.53 nM | 192 °C
